Measurements: the Kinase Knowledgebase extract (Sharma et al. 2016)

Each molecule was assayed against CDK2 (human) (UniProt P24941) (assay: Enzyme Assay).

| SMILES | IC50 |
| --- | --- |
| COc1ccc(Cl)cc1C(=O)Nc1c[nH]nc1-c1nc2cc(CN3CCN(C)CC3)ccc2[nH]1 | < 1 µM |
| COc1ccc(C#N)cc1C(=O)Nc1c[nH]nc1-c1nc2cc(CN3CCOCC3)ccc2[nH]1 | < 1 µM |
| COc1cc2nc(-c3n[nH]cc3NC(=O)c3ccoc3CN(C)C)[nH]c2cc1OC | < 1 µM |
| O=C(CC1CC1)Nc1c[nH]nc1-c1nc2cc(CN3CCOCC3)ccc2[nH]1 | < 1 µM |
| O=C(Nc1c[nH]nc1-c1nc2cc(CN3CCOCC3)ccc2[nH]1)Nc1c(F)cc(F)cc1F | < 1 µM |

The next lines start with the values.

| IC50 | SMILES |
| --- | --- |
| < 1 µM | O=C(Nc1c[nH]nc1-c1nc2cc(CN3CCOCC3)ccc2[nH]1)NN1CCOCC1 |
| < 1 µM | CN(C)NC(=O)Nc1c[nH]nc1-c1nc2cc(CN3CCOCC3)ccc2[nH]1 |
| < 1 µM | COc1cc2nc(-c3n[nH]cc3NC(=O)c3cc(Cl)cc(N4CCN(C)CC4)c3)[nH]c2cc1OC |
| < 1 µM | O=C(Nc1c[nH]nc1-c1nc2cc(CN3CCOCC3)ccc2[nH]1)NN1CCCC1 |
| < 1 µM | O=C(Nc1cc(F)ccc1F)Nc1c[nH]nc1-c1nc2cc(CN3CCOCC3)ccc2[nH]1 |
| < 1 µM | O=C(Nc1ccc(F)cc1F)Nc1c[nH]nc1-c1nc2cc(CN3CCOCC3)ccc2[nH]1 |
| < 1 µM | O=C(Nc1c[nH]nc1-c1nc2cc(CN3CCOCC3)ccc2[nH]1)C1CCCO1 (configuration not stated) |
